Laboratory results: US9353090B2, “Heterocyclic carboxylic acids as activators of soluble guanylate cyclase” (Boehringer Ingelheim International GmbH, priority 2014, dated 2016)
≈ marks a conversion by molar mass, not a printed value.

Tests used:
[1] = Human liver microsome (HLM) metabolic stability assay; assay type: in vitro ADME; settings: human liver microsomes
Method in brief: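 Compound at 1 uM incubated with human liver microsomes at 37° C. for 60 min after NADPH addition. Aliquots quenched in cold acetonitrile at 0, 5, 15, 30 and 60 min and analysed by LC/MS/MS. t1/2 from ln(% remaining) vs time slope; CLint, CLh and % Qh derived from it (n=1).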

[2] = target: human soluble guanylate cyclase alpha 1 and beta 1 subunits (sGC) (Homo sapiens (Human), UniProt Q02108+Q02153); assay: sGC cellular activator assay (cGMP, HTRF), in the presence and absence of 50% human serum; assay type: cell-based; settings: CHO cells stably expressing human sGC alpha 1/beta 1, preincubated with 40 microM ODQ; cGMP by HTRF; Table 2 does not state whether with or without 50% human serum
Method in brief: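 Heme-oxidized conditions: ODQ (40 microM, 1 h) pretreatment of CHO cells stably expressing human α1/β1 sGC, in buffer containing 0.1% BSA and IBMX.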

physchem = settings: kinetic from dmso stock
[3] = pH 2.2, aqueous buffer, Solubility (pH 2.2)
[4] = pH 4.5, aqueous buffer, Solubility (pH 4.5)
[5] = pH 6.8, aqueous buffer, Solubility (pH 6.8)

Sequence of human soluble guanylate cyclase alpha 1 and beta 1 subunits (sGC) (Q02108 whole entry partner): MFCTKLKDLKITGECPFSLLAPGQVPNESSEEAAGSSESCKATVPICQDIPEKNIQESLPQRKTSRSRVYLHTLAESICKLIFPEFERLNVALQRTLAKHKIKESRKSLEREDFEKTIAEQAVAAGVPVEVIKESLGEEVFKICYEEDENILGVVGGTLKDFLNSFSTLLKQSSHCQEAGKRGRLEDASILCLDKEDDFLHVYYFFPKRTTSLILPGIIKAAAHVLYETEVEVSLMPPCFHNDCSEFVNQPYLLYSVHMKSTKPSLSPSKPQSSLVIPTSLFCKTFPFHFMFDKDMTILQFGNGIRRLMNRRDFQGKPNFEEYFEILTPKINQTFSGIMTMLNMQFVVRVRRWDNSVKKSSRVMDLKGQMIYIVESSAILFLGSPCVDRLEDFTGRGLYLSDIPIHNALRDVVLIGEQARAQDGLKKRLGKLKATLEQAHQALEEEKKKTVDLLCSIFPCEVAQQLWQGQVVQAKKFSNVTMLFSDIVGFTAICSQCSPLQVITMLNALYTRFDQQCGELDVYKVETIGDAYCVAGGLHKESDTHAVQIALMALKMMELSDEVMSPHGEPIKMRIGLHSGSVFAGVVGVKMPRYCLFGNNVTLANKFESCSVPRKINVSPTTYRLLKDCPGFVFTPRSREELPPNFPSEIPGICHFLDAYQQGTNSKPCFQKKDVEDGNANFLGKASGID
Sequence of human soluble guanylate cyclase alpha 1 and beta 1 subunits (sGC) (Q02153 whole entry): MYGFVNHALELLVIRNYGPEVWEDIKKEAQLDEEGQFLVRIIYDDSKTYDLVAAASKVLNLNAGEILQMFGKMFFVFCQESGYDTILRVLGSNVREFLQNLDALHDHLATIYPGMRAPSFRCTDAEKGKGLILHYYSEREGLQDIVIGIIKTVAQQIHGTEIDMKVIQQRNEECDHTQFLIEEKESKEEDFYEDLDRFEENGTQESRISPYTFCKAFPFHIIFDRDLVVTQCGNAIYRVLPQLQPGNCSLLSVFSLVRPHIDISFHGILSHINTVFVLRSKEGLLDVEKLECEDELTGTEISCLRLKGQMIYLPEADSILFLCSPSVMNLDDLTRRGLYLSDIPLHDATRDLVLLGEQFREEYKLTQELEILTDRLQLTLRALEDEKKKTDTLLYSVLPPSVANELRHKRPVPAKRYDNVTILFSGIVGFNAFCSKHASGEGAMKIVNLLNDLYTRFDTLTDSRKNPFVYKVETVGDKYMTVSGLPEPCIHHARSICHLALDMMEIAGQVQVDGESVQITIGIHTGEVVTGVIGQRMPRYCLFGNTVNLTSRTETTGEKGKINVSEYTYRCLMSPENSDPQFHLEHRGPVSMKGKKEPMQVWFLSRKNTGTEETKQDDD

Metabolic stability (Qh %), % hepatic blood flow [1] [%] | EC50 [2] [nM] | solubility at 24 h (physchem; [3]) [µg/mL] | solubility at 24 h (physchem; [4]) [µg/mL] | solubility at 24 h (physchem; [5]) [µg/mL] | Compound
<24 | 26 | 120 (≈ 198 µM) | 61 (≈ 101 µM) | 55 (≈ 90.8 µM) | CO[C@H]1CN(c2nc(-c3cc(C)ccc3OCc3ccc4c(c3C)CCN(C3CCOCC3)CC4)cs2)CC[C@H]1C(=O)O [Compound 182]
33 | 21 | 100 (≈ 180 µM) | 43 (≈ 77.5 µM) | 42 (≈ 75.7 µM) | Cc1c(COc2ccccc2-c2ccnc(N3CC[C@@]4(C(=O)O)C[C@H]4C3)n2)ccc2c1CCN(C1CCOCC1)C2 [Compound 185]
<24 | 150 | 110 (≈ 203 µM) | 50 (≈ 92.5 µM) | 54 (≈ 99.9 µM) | Cc1c(COc2ccccc2-c2ccnc(N3C[C@@H]4C[C@]4(C(=O)O)C3)n2)ccc2c1CCN(C1CCOCC1)C2 [Compound 188]
<24 | 43 | 110 (≈ 198 µM) | 66 (≈ 119 µM) | 66 (≈ 119 µM) | Cc1cccc(-c2ccnc(N3C[C@@H]4C[C@]4(C(=O)O)C3)n2)c1OCc1ccc2c(c1C)CCN(C1CCOCC1)C2 [Compound 189]
<24 | 17 | 99 (≈ 178 µM) | 71 (≈ 128 µM) | 74 (≈ 133 µM) | Cc1cc(COc2c(C)cccc2-c2ccnc(N3C[C@@H]4C[C@]4(C(=O)O)C3)n2)cc2c1CN(C1CCOCC1)CC2 [Compound 190]
<24 | 29 | 48 (≈ 83.7 µM) | < 0.1 | 9.2 (≈ 16 µM) | Cc1ccc(OCc2ccc3c(c2)CCN(C2CCOCC2)C3=O)c(-c2csc(N3CC[C@@]4(C(=O)O)C[C@H]4C3)n2)c1 [Compound 192, (1R,6S)-3-(4-{5-Methyl-2-[1-oxo-2-(tetrahydro-pyran-4-yl)-1,2,3,4-tetrahydro-isoquinolin-6-ylmethoxy]-phenyl}-thiazol-2-yl)-3-aza-bicyclo[4.1.0]heptane-6-carboxylic acid]
<24 | 63 | 140 (≈ 250 µM) | 70 (≈ 125 µM) | 57 (≈ 102 µM) | Cc1ccc(OCc2cnc3c(c2)CCN(C2CCOCC2)C3)c(-c2csc(N3CC[C@@]4(C(=O)O)C[C@H]4C3)n2)c1 [Compound 194]
24 | 3 | 117 (≈ 205 µM) | 114 (≈ 199 µM) | 107 (≈ 187 µM) | CO[C@@H]1CN(c2cccc(-c3cccc(C)c3OCc3ccc4c(c3C)CCN(C3COC3)CC4)n2)CC[C@@H]1C(=O)O [Compound 196]
47 | 9 | 110 (≈ 183 µM) | 73 (≈ 122 µM) | 53 (≈ 88.4 µM) | CO[C@H]1CN(c2cccc(-c3cccc(C)c3OCc3ccc4c(c3C)CCN(C3CCOCC3)CC4)n2)CC[C@H]1C(=O)O [Compound 197]
46 | 145 | 134 (≈ 234 µM) | 51.6 (≈ 89.9 µM) | 23.8 (≈ 41.5 µM) | Cc1ccc(OCc2ccc3c(c2)CCCN(C2CCOCC2)C3)c(-c2csc(N3CC[C@@]4(C(=O)O)C[C@H]4C3)n2)c1 [Compound 199]
<24 | 25 | 130 (≈ 221 µM) | 43.6 (≈ 73.9 µM) | 10.5 (≈ 17.8 µM) | COc1ccc(OCc2ccc3c(c2C)CCN(C2CCOCC2)C3)c(-c2csc(N3CC[C@@]4(C(=O)O)C[C@H]4C3)n2)c1 [Compound 200]
<24 | 40 | 132 (≈ 235 µM) | 10.1 (≈ 18 µM) | 19.5 (≈ 34.7 µM) | COc1ccc(OCc2ccc3c(c2C)CCN(C2COC2)C3)c(-c2csc(N3CC[C@@]4(C(=O)O)C[C@H]4C3)n2)c1 [Compound 201]
62 | 9 | 84 (≈ 144 µM) | 10 (≈ 17.2 µM) | 0.1 (≈ 0.172 µM) | Cc1ccc(OCc2ccc3c(c2C)CCN(C2CCOCC2)C3=O)c(-c2cccc(N3CC[C@@]4(C(=O)O)C[C@H]4C3)n2)c1 [Compound 202]
<24 | 33 | 56.8 (≈ 93.8 µM) | 0.1 (≈ 0.165 µM) | 1.6 (≈ 2.64 µM) | CO[C@H]1CN(c2nc(-c3cc(C)ccc3OCc3ccc4c(c3C)CCN(C3CCOCC3)C4=O)cs2)CC[C@H]1C(=O)O [Compound 203]
<24 | 52 | 109 (≈ 182 µM) | 42.6 (≈ 71 µM) | 10.8 (≈ 18 µM) | CO[C@H]1CN(c2cccc(-c3cc(C)ccc3OCc3ccc4c(c3C)CCN(C3CCOCC3)C4=O)n2)CC[C@H]1C(=O)O [Compound 205]
<24 | 8 | 143 (≈ 234 µM) | 88.6 (≈ 145 µM) | 76.8 (≈ 125 µM) | CO[C@H]1CN(c2nc(-c3cccc(Cl)c3OCc3ccc4c(c3C)CCN(C3CCOCC3)C4)cs2)CC[C@H]1C(=O)O [Compound 207]
<24 | 16 | 139 (≈ 228 µM) | 88.9 (≈ 145 µM) | 77.1 (≈ 126 µM) | CO[C@@H]1CN(c2nc(-c3cccc(Cl)c3OCc3ccc4c(c3C)CCN(C3CCOCC3)C4)cs2)CC[C@@H]1C(=O)O [Compound 208]
<24 | 14 | 128 (≈ 220 µM) | 83.9 (≈ 145 µM) | 88.7 (≈ 153 µM) | COc1cc(COc2c(C)cccc2-c2csc(N3CC[C@@H](C(=O)O)[C@@H](OC)C3)n2)cc2c1CN(C1COC1)CC2 [Compound 209]
<24 | 16 | 136 (≈ 230 µM) | 88.2 (≈ 149 µM) | 75 (≈ 126 µM) | COc1cc(COc2c(C)cccc2-c2csc(N3CC[C@@H](C(=O)O)[C@@H](OC)C3)n2)cc2c1CN([C@@H]1CCOC1)CC2 [Compound 210]
<24 | 18 | 133 (≈ 224 µM) | 83.4 (≈ 140 µM) | 76.5 (≈ 129 µM) | COc1cc(COc2c(C)cccc2-c2csc(N3CC[C@@H](C(=O)O)[C@@H](OC)C3)n2)cc2c1CN([C@H]1CCOC1)CC2 [Compound 211]
<24 | 34 | 136 (≈ 221 µM) | 96.6 (≈ 157 µM) | 72.7 (≈ 118 µM) | COC[C@H]1N(c2cccc(-c3cccc(F)c3OCc3ccc4c(c3C)CCN(C3CCOCC3)CC4)n2)C[C@@H]2C[C@@]21C(=O)O [Compound 212]
<24 | 134 | 144 (≈ 239 µM) | 109 (≈ 181 µM) | 81.3 (≈ 135 µM) | COC[C@H]1N(c2cccc(-c3cccc(F)c3OCc3cc(C)c4c(c3)CCN(C3CCOCC3)C4)n2)C[C@@H]2C[C@@]21C(=O)O [Compound 213]
<24 | 243 | 118 (≈ 207 µM) | 108 (≈ 189 µM) | 87.9 (≈ 154 µM) | Cc1cccc(-c2cccc(N3CC4OCC3C4C(=O)O)n2)c1OCc1ccc2c(c1C)CCN(C1CCOCC1)C2 (stereo not shown) [Compound 214]
